The source made the active and inactive calls. The rule behind the calls is not given here.

The experiment relates to Human immunodeficiency virus 1. Briefly: Antiviral activity against 10 CCID50 units of HIV1 infected in human C8166 cells at 2.5 ug/mL after 5 to 7 days. It counts as functional, organism-based.
Consider `CC1(C)CCC[C@]2(C)[C@H]3CC[C@@](O)(CO)[C@H](CC(O)C4=CC(=O)OC4OC(=O)/C=C/c4ccccc4)[C@]3(C)CC[C@@H]12` (some centres undefined), for which the result was inactive.

For the compound `CC(=O)OC[C@]1(O)CC[C@@H]2[C@@]3(C)CCCC(C)(C)[C@@H]3CC[C@@]2(C)[C@H]1CC(O)C1=CC(=O)OC1OC(=O)/C=C/c1ccccc1` (some centres undefined), the outcome was inactive.

`CC(=O)OC[C@]1(O)CC[C@@H]2[C@@]3(C)CCCC(C)(C)[C@@H]3CC[C@@]2(C)[C@H]1CC(O)C1=CC(=O)OC1OC(C)=O` (some centres undefined): the result was inactive.

`CC(=O)OC1OC(=O)C=C1C(O)C[C@H]1[C@](O)(CO)CC[C@@H]2[C@@]3(C)CCCC(C)(C)[C@@H]3CC[C@]21C` (some centres undefined): the result was inactive.

Values taken from ChEMBL document CHEMBL1158190, “New Tetracyclic Sesterterpenes from Cydonia vulgaris” (J Nat Prod, 1996).
